Source: ChEMBL document CHEMBL2010724, “Oroxylin A analogs exhibited strong inhibitory activities against iNOS-mediated nitric oxide (NO) production” (Bioorg Med Chem Lett, 2012)
pIC50: −log10 of the molar value.

Experiments:
[1] = target: T1, Nitric oxide synthase, inducible (Mus musculus) (UniProt P29477); assay: Inhibition of iNOS-induced NO production in LPS-stimulated mouse BV2 cells at 10 uM after 24 hrs; assay type: cell-based; conditions: BV-2
T1 sequence (whole entry): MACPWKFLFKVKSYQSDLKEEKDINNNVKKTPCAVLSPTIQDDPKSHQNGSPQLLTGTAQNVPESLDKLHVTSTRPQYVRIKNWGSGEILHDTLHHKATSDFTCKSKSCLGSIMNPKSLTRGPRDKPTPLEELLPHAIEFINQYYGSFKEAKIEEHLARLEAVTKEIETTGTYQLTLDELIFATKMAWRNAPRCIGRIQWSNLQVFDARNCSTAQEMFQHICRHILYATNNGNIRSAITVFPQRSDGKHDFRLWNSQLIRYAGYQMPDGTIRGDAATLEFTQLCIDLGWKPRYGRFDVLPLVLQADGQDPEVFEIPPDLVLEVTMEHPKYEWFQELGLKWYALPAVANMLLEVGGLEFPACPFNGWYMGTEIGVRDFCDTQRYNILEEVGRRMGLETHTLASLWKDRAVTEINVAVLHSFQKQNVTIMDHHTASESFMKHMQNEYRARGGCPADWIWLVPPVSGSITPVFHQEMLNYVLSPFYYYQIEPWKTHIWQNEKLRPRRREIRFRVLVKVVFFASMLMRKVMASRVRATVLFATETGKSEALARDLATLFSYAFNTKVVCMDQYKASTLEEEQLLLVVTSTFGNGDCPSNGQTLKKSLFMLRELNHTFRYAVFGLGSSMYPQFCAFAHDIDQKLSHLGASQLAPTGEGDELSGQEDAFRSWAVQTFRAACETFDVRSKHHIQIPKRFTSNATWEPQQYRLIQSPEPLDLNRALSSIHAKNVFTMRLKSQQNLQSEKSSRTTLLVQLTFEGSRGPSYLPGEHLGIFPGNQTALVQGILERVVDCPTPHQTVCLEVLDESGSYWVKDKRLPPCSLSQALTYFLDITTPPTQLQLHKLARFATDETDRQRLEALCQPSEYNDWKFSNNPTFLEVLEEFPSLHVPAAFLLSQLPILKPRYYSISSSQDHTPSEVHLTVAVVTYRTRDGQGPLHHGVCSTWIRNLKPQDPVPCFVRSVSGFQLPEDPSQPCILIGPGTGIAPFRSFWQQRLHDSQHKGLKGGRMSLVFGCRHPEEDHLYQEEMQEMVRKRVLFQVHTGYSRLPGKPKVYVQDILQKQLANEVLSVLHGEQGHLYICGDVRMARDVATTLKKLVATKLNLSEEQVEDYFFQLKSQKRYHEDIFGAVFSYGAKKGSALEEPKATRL

[2] = target: T2, Nitric oxide synthase, inducible (Mus musculus, UniProt P29477); assay: Inhibition of iNOS-induced NO production in LPS-stimulated mouse BV2 cells after 24 hrs; assay type: cell-based; conditions: bv-2
T2 sequence (P29477 whole entry): T1 sequence (whole entry)

| inhibition [1] | pIC50 [2] | SMILES |
| --- | --- | --- |
| 8.2% | – | COc1cc(-c2cc(=O)c3c(O)c(OC)c(O)cc3o2)ccc1O |
| 45.2% | 4.96 | COc1c(O)cc2oc(-c3cccc(Br)c3)cc(=O)c2c1O |
| 10.6% | – | COc1c(O)cc2oc(-c3ccc(F)cc3F)cc(=O)c2c1O |
| 26% | – | COc1c(O)cc2oc(-c3ccccc3)cc(=O)c2c1O |
| 14.2% | – | COc1c(O)cc2oc(-c3ccccc3F)cc(=O)c2c1O |
| 40.8% | 5.07 | COc1c(O)cc2oc(-c3ccc(F)cc3)cc(=O)c2c1O |
| 40% | 5.11 | COc1c(O)cc(O)c2c(=O)cc(-c3ccccc3)oc12 [WOGONIN] |
| 45.7% | 5.33 | COc1c(O)cc2oc(-c3ccc([N+](=O)[O-])cc3)cc(=O)c2c1O |
| 13.1% | – | COc1c(O)cc2oc(-c3ccc(Cl)c(Cl)c3)cc(=O)c2c1O |
| 39.9% | 4.94 | COc1c(O)cc2oc(-c3cccc(F)c3)cc(=O)c2c1O |
